In PMC2725291, “Genetic and Molecular Basis of Individual Differences in Human Umami Taste Perception” (PLoS ONE, 2009):
Structures can show the parent of a compound that is named as a salt.

Tests used:
[1] = target: T1, TAS1R1-372A and TAS1R3-757R (Homo sapiens, UniProt Q7RTX0+Q7RTX1, C757R); test: Ca2+ imaging (bath perfusion) in HEK cells transfected with TAS1R1-372A, TAS1R3-757R and Gα16-i3; type: cell-based
T1 construct: expressed in transfected cells; host or cells: HEK293
T1 sequence (Q7RTX1 21-841): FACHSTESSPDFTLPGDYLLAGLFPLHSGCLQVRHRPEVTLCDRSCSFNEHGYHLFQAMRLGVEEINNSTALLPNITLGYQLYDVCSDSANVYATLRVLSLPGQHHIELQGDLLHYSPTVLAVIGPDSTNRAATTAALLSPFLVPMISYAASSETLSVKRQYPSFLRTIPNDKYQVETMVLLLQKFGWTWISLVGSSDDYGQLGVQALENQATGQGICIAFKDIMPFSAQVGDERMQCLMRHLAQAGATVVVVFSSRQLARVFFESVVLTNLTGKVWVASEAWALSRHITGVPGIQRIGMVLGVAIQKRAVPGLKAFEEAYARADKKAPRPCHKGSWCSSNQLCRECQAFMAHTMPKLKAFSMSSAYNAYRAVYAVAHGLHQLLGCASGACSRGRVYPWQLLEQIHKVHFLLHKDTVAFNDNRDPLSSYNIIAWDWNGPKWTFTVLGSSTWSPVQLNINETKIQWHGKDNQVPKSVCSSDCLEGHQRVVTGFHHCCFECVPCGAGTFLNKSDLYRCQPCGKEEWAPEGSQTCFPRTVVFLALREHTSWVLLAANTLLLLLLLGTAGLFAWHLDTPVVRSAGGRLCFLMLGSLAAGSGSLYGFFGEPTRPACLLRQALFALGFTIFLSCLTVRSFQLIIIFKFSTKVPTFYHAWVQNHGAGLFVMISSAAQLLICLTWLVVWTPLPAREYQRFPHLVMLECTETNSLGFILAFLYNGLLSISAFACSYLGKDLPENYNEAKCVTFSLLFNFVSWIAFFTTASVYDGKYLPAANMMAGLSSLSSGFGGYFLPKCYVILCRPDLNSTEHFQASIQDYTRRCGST
T1 sequence (Q7RTX0 21-852 C757R): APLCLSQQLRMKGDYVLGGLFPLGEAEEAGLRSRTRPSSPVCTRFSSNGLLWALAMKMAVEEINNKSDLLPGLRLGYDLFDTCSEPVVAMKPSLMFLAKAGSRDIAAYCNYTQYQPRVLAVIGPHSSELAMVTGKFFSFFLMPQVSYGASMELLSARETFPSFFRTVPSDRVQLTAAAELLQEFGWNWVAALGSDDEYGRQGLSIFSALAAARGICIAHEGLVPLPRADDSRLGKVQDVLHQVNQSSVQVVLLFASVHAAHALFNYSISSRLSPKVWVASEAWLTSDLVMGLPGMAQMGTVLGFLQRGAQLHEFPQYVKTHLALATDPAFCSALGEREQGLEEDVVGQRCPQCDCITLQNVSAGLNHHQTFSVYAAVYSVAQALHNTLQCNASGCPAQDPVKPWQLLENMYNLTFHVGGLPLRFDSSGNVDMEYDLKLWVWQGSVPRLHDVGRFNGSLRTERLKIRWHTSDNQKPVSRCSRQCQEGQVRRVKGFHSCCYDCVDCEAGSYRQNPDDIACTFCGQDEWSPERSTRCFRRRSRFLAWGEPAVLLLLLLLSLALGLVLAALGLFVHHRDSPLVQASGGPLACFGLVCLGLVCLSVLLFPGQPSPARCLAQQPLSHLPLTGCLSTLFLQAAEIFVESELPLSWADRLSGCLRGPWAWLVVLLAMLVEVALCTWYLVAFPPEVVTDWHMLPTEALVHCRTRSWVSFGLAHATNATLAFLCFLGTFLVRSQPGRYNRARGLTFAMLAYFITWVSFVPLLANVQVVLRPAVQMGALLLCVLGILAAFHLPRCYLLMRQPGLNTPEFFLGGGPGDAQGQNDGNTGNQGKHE
Description: HEK293 cells were cultured at 37°C under a humidified atmosphere containing 5% CO2 in Dulbecco's modified Eagle's medium supplemented with 10% fetal bovine serum. To obtain reproducible Ca^2+ responses, cells were split every 2 days before cells become confluent. Cells were discarded after 2 months of passages and new cells were prepared from frozen-stock. For calcium imaging experiments, cells were seeded onto a 35 mm recording chamber or poly-D-lysine coated 96-well black-wall, clear-bottom recording plates. After 24 hrs at 37°C, confluent cells (60∼70%) were washed in OptiMEM medium supplemented with GlutaMAX-I (invitrogen) and plasmid DNAs were transiently cotransfected into HEK293 cells using Lipofectamine2000 regent (invitrogen) (2.0 µl per 1.0 µg DNA). TAS1Rs (or their mutants) and Gαl6-i3 were transfected using 1.5 and 1.0 µg of plasmid for 35 mm recording chambers, 0.09 and 0.06 µg of plasmid per well for 96-well plates, respectively. […] Immuno staining and Ca^2+ imaging assays were performed 36∼40 hrs after transfection.
Two Ca^2+ imaging systems were used. A bath perfusion system was used for kinetics of activation. Transfected cells in 35 mm recording chambers were washed in Hank's balanced salt solution (HBSS) containing 10 mM HEPES, pH 7.4, and loaded with 3.0 µM Fluo-4 acetoxymethyl ester (invitrogen) for 1.0 hr at 37°C. The dye-loaded cells were subjected to Ca^2+ imaging. Taste solutions diluted in HBSS were applied sequentially to the cells for 30 s with a peristaltic pump at a flow rate of 1.5 ml/min, and fluorescence images were obtained using a S Fluor ×20/0.75 objective lens (Nikon) via a cooled-CCD camera (C6790, Hamamatsu Photonics) fitted to a TE300 microscope (Nikon). Acquisition and analysis of these fluorescence images used AquaCosmos software (v. 1.3, Hamamatsu Photonics). A 3 min interval was left between each tastant application to ensure that the cells were not desensitized as a result of the previous application of tastants. Responses were measured from 30 individual responding cells. […] Isoproterenol (ISO, 10 µM) was used as positive control, which stimulates endogenous β-adrenergic receptors, providing that the Gα16-dependent signal transduction cascade was functional.

254 Japanese subjects = test: Taste recognition threshold measurement (staircase method); type: in vivo, human; conditions: other basic taste stimuli, Figure S1
Description: A total of 254 healthy, non-obese, non-diabetic Japanese volunteers [male/female: 141/113, age: 20–36, body mass index (BMI); 16.5–24.8] participated in this study. The purpose of the study as well as the methods and procedure were explained to the participants and the patients in this manuscript have given written informed consent. All protocols were approved by the local ethics committee at Kyushu University. Subjects were asked to refrain from consuming alcohol the day before testing, caffeine on the day of testing, and food during the experimentation period. The inclusion criteria were satisfactory state of oral hygiene, non-smoking, regular work, sleep, and meal schedules.
As MSG contains sodium, great care was taken to compare individual sensitivities to MSG relative to NaCl. […] The differences in concentrations in the present study were in 0.3 log steps, which mean step-wise increases in concentration by a factor of 2.0. All solutions were made up in distilled water and used at room temperature. The testing procedure was the staircase-method modified from Pasquet et al.. Each subject evaluated all 7 tastants. The seven series of solutions were presented one after another within a single section. Within each series, the solutions with each 2.0 ml were applied to the whole tongue of each subject with a pipet in order of ascending concentrations. The subjects were asked not to swallow test solutions and rinse their mouth between two solutions with distilled water. The subject was requested to correctly name the taste quality in each series. Once the taste of two successive concentrations was recognized successfully, the subject was given the previous unrecognized concentration (first reversal). The points at which concentration sequence changed from a decrease to an increase or vice versa were designated “reversals”. The procedure was terminated after five reversals, and the threshold was calculated as the mean of the concentration values of the last four reversals.
Student's t-test was used for detection of differences in the mean recognition thresholds between males and females. The χ^2 test was used for checking Hardy-Weinberg Equilibrium (HWE) for the genotype frequencies in samples to control genotyping errors, for detection of differences in genotype and allele frequencies between high and low taste recognition threshold groups. Yates'χ^2 test was used when the number was less than 10. The mean values (the center±S.E. of gaussian curve on X-axis) in the distribution of recognition thresholds defined by TAS1R1/TAS1R3 haplotypes (TAS1R1-372A/TAS1R3-757R homozygotes, TAS1R1-372T/TAS1R3-757R homozygotes, homo- and heterozygotes containing TAS1R3-757C) were calculated using gauss fit function of Origin 5.0 (OriginLab Corp). For Ca^2+ imaging analysis, data were normalized to response to 10 µM ISO, and mean values (±S.E.) were calculated from 10∼18 independent analyses. EC50 values were calculated from individual cumulative concentration-response data using sigmoid fit functions of Origin 5.0. One factor ANOVAs were conducted for detection of differences in the distributions of recognition thresholds for umami substances among 3 groups defined by TAS1R1/TAS1R3 haplotypes, and in the responses to 5, 20 and 50 mM MSG or 0.3, 5 and 50 mM M+I among TAS1R1/TAS1R3 variants in Ca^2+ imaging analysis. When the ANOVA was significant, post-hoc Student's t-test or Fisher's PLSD test was performed to compare individual means at each umami compound or concentration. Significance level was 0.05.

TAS1R1/TAS1R3 variants = test: Ca2+ imaging (FlexStation II), comparison across receptor variants (AR, TR, AC, TC); type: cell-based, human; conditions: lactisole 5 mM; 20 mM MSG+0.5 mM IMP; Figure S5
Description: Intronless human TAS1Rs and Gαl6 expression constructs were generated in the pEF-DEST51 Gateway vector (Invitrogen) by genomic DNA-based methods. To subclone each gene into the vector, a Kozak cassette was introduced at the 5′ end before the start codon. Gαl6 chimeras were generated by PCR with mutagenic primers. The carboxyl-terminal tail of Gαl6, five-residue (EINLL) was replaced by its counterpart from Gαi3 (ECGLY; Gα16-i3), Gαgust (DCGLF; Gα16-gust), and Gα16-gust44 was generated as described. The integrity of all DNA constructs was confirmed by DNA sequencing. Point mutations in TAS1Rs were made using the same overlapping PCR strategy with mutagenic primers.
HEK293 cells were cultured at 37°C under a humidified atmosphere containing 5% CO2 in Dulbecco's modified Eagle's medium supplemented with 10% fetal bovine serum. To obtain reproducible Ca^2+ responses, cells were split every 2 days before cells become confluent. Cells were discarded after 2 months of passages and new cells were prepared from frozen-stock. For calcium imaging experiments, cells were seeded onto a 35 mm recording chamber or poly-D-lysine coated 96-well black-wall, clear-bottom recording plates. After 24 hrs at 37°C, confluent cells (60∼70%) were washed in OptiMEM medium supplemented with GlutaMAX-I (invitrogen) and plasmid DNAs were transiently cotransfected into HEK293 cells using Lipofectamine2000 regent (invitrogen) (2.0 µl per 1.0 µg DNA). […]
Student's t-test was used for detection of differences in the mean recognition thresholds between males and females. […] The mean values (the center±S.E. of gaussian curve on X-axis) in the distribution of recognition thresholds defined by TAS1R1/TAS1R3 haplotypes (TAS1R1-372A/TAS1R3-757R homozygotes, TAS1R1-372T/TAS1R3-757R homozygotes, homo- and heterozygotes containing TAS1R3-757C) were calculated using gauss fit function of Origin 5.0 (OriginLab Corp). For Ca^2+ imaging analysis, data were normalized to response to 10 µM ISO, and mean values (±S.E.) were calculated from 10∼18 independent analyses.

| Compound | Ca2+ response of transfected HEK cells ([1]; 50 mM) | differences in distributions of recognition thresholds among TR, AR and TAS1R3-757C groups (254 Japanese subjects) | further results |
| --- | --- | --- | --- |
| O=C1NS(=O)(=O)c2ccccc21 [saccharin] | – | – | Ca2+ response of transfected HEK cells ([1]; 1 mM (data not shown)): did not respond |
| NC(=S)Nc1ccccc1 [PTC, phenylthiocarbamide] | – | no such differences | – |
| [Cl-].[Na+] [NaCl] | did not respond | no such differences | – |
| COc1ccc(OC(C)C(=O)O)cc1 (stereo not shown) [lactisole] | – | – | inhibition effect on the responses of TAS1R1/TAS1R3 variants (TAS1R1/TAS1R3 variants): clearly observed |
| Cl [HCl] | – | no such differences | – |
| C[C@H](NC(=NCC(=O)O)Nc1ccc(C#N)cc1)c1ccccc1 [SC45647] | – | – | Ca2+ response of transfected HEK cells ([1]; 0.3 mM (data not shown)): did not respond |

Further lines, with some results ahead:

| Ca2+ response of transfected HEK cells ([1]; 50 mM) | Compound | differences in distributions of recognition thresholds among TR, AR and TAS1R3-757C groups (254 Japanese subjects) | further results |
| --- | --- | --- | --- |
| did not respond | OC[C@H]1OC(O)[C@H](O)[C@@H](O)[C@@H]1O (stereo partly shown) [glucose] | – | – |
| did not respond | OC[C@H]1O[C@@](CO)(O[C@H]2O[C@H](CO)[C@@H](O)[C@H](O)[C@H]2O)[C@@H](O)[C@@H]1O [sucrose] | no such differences | – |
